BindingDB's records for doi:10.1016/j.bmcl.2012.07.091 (University of Copenhagen, 2012)

target: T1, Lysine-specific demethylase 4C (Homo sapiens, UniProt Q9H3R0); experiment: Inhibition of KDM4C catalytic core-mediated demethylation of ARK(Me)3STGGK after 30 mins by FDH-coupled assay
T1 sequence (Q9H3R0 whole entry): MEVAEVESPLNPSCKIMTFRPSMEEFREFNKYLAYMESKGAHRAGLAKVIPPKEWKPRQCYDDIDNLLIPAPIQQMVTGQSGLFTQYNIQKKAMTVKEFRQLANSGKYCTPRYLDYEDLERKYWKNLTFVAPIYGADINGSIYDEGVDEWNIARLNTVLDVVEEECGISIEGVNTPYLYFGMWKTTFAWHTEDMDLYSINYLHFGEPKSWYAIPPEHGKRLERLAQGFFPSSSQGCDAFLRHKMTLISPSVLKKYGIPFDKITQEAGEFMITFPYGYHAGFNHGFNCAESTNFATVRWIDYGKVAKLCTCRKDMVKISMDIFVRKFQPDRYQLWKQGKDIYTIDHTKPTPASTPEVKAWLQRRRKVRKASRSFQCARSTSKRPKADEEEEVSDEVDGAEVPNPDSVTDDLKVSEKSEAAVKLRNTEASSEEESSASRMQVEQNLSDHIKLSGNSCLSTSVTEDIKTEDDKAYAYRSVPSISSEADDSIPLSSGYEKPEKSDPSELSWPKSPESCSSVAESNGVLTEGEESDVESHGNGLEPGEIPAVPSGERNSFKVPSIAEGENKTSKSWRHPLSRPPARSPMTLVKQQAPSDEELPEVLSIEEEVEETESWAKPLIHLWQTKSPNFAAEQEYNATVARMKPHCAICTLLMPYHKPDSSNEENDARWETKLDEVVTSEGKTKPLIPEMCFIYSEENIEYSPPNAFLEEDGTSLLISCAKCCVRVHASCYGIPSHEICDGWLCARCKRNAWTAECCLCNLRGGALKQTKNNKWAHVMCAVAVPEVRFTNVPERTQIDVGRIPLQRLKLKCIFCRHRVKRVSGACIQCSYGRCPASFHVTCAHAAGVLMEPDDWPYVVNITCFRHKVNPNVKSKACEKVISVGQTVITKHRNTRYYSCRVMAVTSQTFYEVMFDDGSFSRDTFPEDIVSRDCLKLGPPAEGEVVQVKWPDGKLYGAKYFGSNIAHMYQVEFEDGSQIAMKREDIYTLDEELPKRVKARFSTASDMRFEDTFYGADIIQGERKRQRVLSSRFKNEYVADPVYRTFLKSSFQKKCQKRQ

Row | IC50 [µM] | Ki [µM] | Compound
1 | > 200 | > 200 | CN1CN(Cc2ccccc2)CC1=S
2 | > 200 | > 200 | CNC(=O)c1n[nH]n(C)c1=O
3 | > 200 | > 200 | OCC1C(Cl)N=NN1c1ccccc1 (stereo unspecified)
